≈ marks a conversion by molar mass, not a printed value.
Assays:
[1] = tested on: MSm; assay: microbe, parasite or virus in culture; type: cell-based, Mycobacterium smegmatis
[2] = tested on: MTb H37Rv; conditions: wild type MTb; cited from earlier work

For `CCc1cc(C(N)=S=O)ccn1` [ETA S-oxide], the “absolute MIC compared with ETA” value [1] was “lower” and the “effect of EtaR/EtaA overexpression on susceptibility” value [1] was “EtaR conferred resistance and EtaA conferred hypersensitivity”.

In the case of `CCc1cc(C(N)=S)ccn1` [ETA, ethionamide], the MIC [2] is given as 1.0 µg/mL (≈ 6.02 µM), the “concentration at which growth occurred” value [1] is given as 50 µg/mL and the “concentration at which transformants were able to grow” value [1] is given as “greater than 200 μg/ml”. For the same compound, the “concentration with noticeable growth inhibition” value [1] was 2.5 µg/mL and the MIC ([1]; Mycolicibacterium smegmatis) was over 62.5 µg/mL.

For `NNC(=O)c1ccncc1` [INH, isoniazid], the susceptibility to killing [1] was “equally susceptible”.
